Measurements published in ChEMBL document CHEMBL4406877, “Synthesis of 2-arylhydrazinylidene-3-oxo-4,4,4-trifluorobutanoic acids as new selective carboxylesterase inhibitors and radical scavengers” (Bioorg Med Chem Lett, 2019).
pIC50, pKi: −log10 of the molar value. Active and inactive are the calls of the source. No cut-off for these calls is given here.

Key:
[1] = Antioxidant activity assessed as decrease in ABTS radical cation scavenging activity after 1 min by UV-Vis spectrophotometric analysis relative to control; format: functional; set-up: scale not given: the % may be the effect or the level left
[2] = biological target: Cholinesterase (Equus caballus) (UniProt P81908); experiment: Inhibition of equine serum BuChE at 20 uM using […] as substrate preincubated for 10 mins followed by substrate addition by Ellman's method relative to control
[3] = Potency index, ratio of ascorbic acid IC50 to test compound IC50 for antioxidant activity assessed as decrease in ABTS radical cation scavenging activity; format: functional
[4] = biological target: Acetylcholinesterase (Homo sapiens) (UniProt P22303); experiment: Inhibition of human erythrocyte AChE at 20 uM using acetylthiocholine iodide as substrate preincubated for 10 mins followed by substrate addition by Ellman's method relative to control
[5] = Potency index, ratio of trolox IC50 to test compound IC50 for antioxidant activity assessed as decrease in ABTS radical cation scavenging activity; format: functional
Liver carboxylesterase [6] = biological target: T1, Liver carboxylesterase (Sus scrofa, UniProt Q29550); experiment: Inhibition of porcine liver carboxylesterase using 4-NPA as substrate preincubated for 10 mins followed by substrate addition by spectrophotometric analysis
T1 sequence (Q29550 whole entry): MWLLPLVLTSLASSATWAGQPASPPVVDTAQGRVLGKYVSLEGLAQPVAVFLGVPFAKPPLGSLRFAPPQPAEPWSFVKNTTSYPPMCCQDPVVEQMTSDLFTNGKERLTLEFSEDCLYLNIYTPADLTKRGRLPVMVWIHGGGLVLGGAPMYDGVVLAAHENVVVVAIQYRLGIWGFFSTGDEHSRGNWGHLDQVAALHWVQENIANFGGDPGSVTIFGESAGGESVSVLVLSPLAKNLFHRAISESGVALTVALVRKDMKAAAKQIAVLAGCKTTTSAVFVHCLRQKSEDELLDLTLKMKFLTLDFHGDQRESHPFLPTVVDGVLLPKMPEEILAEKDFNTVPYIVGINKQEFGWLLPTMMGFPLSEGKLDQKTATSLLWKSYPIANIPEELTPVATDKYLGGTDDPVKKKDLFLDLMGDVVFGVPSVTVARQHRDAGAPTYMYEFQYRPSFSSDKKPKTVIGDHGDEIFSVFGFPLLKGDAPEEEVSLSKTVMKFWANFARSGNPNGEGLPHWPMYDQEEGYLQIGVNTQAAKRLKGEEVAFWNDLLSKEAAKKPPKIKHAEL

[7] = Antioxidant activity assessed as decrease in ABTS radical cation scavenging activity every 1 min for 6 mins by UV-Vis spectrophotometric analysis; format: functional
Liver carboxylesterase [8] = biological target: T1, Liver carboxylesterase; experiment: Competitive inhibition of porcine liver carboxylesterase by double reciprocal Lineweaver-Burk plot analysis
Liver carboxylesterase [9] = biological target: T1, Liver carboxylesterase; experiment: Non-competitive inhibition of porcine liver carboxylesterase by double reciprocal Lineweaver-Burk plot analysis; details: pig
Liver carboxylesterase [10] = biological target: T1, Liver carboxylesterase; experiment: Inhibition of porcine liver carboxylesterase at 20 uM using 4-NPA as substrate preincubated for 10 mins followed by substrate addition by spectrophotometric analysis relative to control; details: pig

Chain of Cholinesterase (Equus caballus) (P81908 whole entry): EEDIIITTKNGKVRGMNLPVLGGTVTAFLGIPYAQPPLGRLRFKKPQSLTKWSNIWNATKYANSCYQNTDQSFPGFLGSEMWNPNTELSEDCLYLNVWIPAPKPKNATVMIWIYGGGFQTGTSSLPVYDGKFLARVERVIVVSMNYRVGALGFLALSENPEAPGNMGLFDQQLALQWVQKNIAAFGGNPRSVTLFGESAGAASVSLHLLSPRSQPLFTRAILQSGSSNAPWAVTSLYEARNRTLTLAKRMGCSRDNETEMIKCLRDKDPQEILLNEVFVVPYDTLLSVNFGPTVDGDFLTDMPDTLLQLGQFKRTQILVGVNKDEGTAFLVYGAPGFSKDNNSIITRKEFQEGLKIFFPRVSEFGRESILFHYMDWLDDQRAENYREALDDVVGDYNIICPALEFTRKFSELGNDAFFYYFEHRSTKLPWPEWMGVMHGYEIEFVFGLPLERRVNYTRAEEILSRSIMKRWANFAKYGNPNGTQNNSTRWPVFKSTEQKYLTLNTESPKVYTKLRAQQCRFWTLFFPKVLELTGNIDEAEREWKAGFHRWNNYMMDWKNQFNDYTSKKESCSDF
Chain of Acetylcholinesterase (Homo sapiens) (P22303 whole entry): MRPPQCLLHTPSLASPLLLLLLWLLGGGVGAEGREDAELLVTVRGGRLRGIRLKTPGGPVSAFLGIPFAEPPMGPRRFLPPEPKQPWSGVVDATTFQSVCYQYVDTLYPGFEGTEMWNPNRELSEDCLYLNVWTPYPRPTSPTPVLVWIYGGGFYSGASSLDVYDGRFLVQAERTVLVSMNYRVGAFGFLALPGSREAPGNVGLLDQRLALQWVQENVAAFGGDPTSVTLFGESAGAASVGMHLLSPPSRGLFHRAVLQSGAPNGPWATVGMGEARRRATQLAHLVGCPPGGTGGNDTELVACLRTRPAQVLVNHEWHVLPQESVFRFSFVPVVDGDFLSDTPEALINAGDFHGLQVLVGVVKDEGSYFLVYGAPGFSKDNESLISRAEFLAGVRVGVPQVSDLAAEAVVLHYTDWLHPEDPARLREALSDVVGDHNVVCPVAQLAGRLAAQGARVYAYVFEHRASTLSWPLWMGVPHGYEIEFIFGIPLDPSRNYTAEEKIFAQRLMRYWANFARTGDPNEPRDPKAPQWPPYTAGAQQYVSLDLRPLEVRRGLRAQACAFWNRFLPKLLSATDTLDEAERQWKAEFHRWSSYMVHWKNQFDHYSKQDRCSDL

| SMILES | Activity [1] [%] | inhibition [2] | Ratio IC50 [3] | inhibition [4] | Ratio IC50 [5] | pIC50 (Liver carboxylesterase [6]) | pIC50 [7] | pKi (Liver carboxylesterase [8]) | alphaKi (Liver carboxylesterase [9]) [µM] | inhibition at 20 µM (Liver carboxylesterase [10]; porcine liver carboxylesterase, probe 4-NPA) [%] | inhibition (INH) (Liver carboxylesterase [10]; 20 µM) |
| --- | --- | --- | --- | --- | --- | --- | --- | --- | --- | --- | --- |
| COc1ccc(N/N=C(\C(=O)O)C(=O)C(F)(F)F)cc1 | 75 | 17.3% | 2 | inactive | 1.9 | 5.58 | 4.96 |  |  |  |  |
| Cc1c(C)c2c(c(C)c1O)CCC(C)(C(=O)O)O2 (stereo not drawn) [TROLOX] |  |  |  |  |  |  | 4.69 |  |  |  |  |
| O=C1O[C@H]([C@@H](O)CO)C(O)=C1O [ASCORBIC ACID] |  |  |  |  | 0.98 |  | 4.67 |  |  |  |  |
| Cc1ccc(N/N=C(\C(=O)O)C(=O)C(F)(F)F)cc1 |  | 18.1% | 2 | inactive | 1.69 | 6.20 | 4.92 | 6.47 | 1.11 |  |  |
| O=[N+]([O-])c1ccc(OP(=O)(O)Oc2ccc([N+](=O)[O-])cc2)cc1 |  | inactive |  | inactive |  |  |  |  |  |  |  |
| CC(=O)/C(=N/Nc1ccc(C)cc1)C(=O)O |  | inactive |  | inactive | 1.65 |  | 4.89 |  |  | 9.3 |  |
| O=C(O)/C(=N\Nc1ccc([N+](=O)[O-])cc1)C(=O)C(F)(F)F |  | 17.3% |  | 6.1% | 0.05 | 5.56 |  |  |  |  |  |
| CCOC(=O)c1ccc(N/N=C(\C(=O)O)C(=O)C(F)(F)F)cc1 |  | 3.4% |  | 8.1% | 0.25 | 6.49 | 4.02 |  |  |  |  |
| CCOC(=O)c1ccccc1N/N=C(\C(=O)O)C(=O)C(F)(F)F |  | 8.7% |  | 16.5% | 0.01 | 7.16 |  |  |  |  |  |
| COc1ccc(N/N=C(/C(C)=O)C(=O)O)cc1 |  | 5.4% |  | inactive | 1.9 |  | 5.01 |  |  |  | Not Active |
